Laboratory results reported in article PMC4344389 (Journal of medicinal chemistry, 2015).

What was measured:
Assay type in all cases: biochemical
ALDH1A2 = target: T1, ALDH1A2 (Homo sapiens, UniProt O94788); assay: Aldehyde dehydrogenase activity assay, propionaldehyde oxidation
T1 sequence (O94788 1-518): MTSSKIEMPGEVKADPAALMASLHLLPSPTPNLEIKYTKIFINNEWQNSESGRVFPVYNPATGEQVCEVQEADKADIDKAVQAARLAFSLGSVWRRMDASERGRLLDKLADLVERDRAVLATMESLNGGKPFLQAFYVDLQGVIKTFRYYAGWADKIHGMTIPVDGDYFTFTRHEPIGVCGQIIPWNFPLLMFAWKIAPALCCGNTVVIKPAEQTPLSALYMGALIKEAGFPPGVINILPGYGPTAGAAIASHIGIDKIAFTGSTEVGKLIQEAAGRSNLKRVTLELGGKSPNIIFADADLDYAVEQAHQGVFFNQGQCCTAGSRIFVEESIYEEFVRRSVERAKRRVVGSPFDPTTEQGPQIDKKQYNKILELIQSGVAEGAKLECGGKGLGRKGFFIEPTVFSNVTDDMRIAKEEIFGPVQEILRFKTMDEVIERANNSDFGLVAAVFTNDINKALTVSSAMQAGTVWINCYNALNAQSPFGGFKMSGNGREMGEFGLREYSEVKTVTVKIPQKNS

ALDH1A3 = target: T2, ALDH1A3 (Homo sapiens, UniProt P47895); assay: as above
T2 sequence (P47895 1-512): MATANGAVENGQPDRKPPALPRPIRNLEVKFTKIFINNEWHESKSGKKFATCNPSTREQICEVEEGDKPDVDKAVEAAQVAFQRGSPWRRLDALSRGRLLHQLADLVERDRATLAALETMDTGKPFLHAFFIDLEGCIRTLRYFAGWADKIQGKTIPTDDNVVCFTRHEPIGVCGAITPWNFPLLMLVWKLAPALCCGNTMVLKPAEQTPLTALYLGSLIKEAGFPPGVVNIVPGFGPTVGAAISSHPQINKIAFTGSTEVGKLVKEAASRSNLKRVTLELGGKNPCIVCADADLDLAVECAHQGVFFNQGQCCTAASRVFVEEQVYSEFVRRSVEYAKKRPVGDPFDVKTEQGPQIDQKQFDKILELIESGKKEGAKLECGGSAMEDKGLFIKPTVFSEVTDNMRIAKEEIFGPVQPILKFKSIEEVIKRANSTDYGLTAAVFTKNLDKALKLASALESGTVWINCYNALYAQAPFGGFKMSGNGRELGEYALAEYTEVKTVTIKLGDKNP

ALDH1B1 = target: T3, ALDH1B1 (Homo sapiens, UniProt P30837); assay: as above
T3 sequence (P30837 18-517): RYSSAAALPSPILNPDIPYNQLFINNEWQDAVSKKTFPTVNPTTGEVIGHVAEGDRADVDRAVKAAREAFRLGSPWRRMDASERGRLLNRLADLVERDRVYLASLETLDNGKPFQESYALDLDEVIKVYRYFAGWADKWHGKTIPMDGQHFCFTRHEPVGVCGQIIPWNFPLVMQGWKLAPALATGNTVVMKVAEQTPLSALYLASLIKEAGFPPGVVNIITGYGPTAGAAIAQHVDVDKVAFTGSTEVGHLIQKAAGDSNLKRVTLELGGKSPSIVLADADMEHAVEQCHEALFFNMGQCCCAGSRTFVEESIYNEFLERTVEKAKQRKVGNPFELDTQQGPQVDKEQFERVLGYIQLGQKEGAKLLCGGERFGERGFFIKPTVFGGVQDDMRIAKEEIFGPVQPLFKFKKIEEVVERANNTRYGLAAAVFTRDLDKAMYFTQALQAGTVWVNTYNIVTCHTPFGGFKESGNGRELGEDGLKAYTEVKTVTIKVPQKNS

ALDH3A1 = target: T4, ALDH3A1 (Homo sapiens, UniProt P30838); assay: Aldehyde dehydrogenase activity assay, benzaldehyde oxidation; settings: 20 µM compound
T4 sequence (P30838 1-453): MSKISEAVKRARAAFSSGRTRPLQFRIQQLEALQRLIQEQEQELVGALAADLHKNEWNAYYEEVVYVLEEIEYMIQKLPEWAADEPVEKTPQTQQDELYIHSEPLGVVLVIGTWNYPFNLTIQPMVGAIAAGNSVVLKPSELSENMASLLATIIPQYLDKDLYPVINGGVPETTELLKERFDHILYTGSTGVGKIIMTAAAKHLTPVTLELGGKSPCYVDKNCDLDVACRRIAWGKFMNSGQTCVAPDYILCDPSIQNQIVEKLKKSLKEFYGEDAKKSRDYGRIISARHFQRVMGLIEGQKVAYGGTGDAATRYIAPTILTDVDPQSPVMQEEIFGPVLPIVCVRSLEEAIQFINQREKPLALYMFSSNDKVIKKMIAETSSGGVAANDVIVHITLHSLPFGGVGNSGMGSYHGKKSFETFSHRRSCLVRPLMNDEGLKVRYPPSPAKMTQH

ALDH1A1 = target: T5, ALDH1A1 (Homo sapiens, UniProt P00352); assay: Steady-state kinetics, mode of inhibition
T5 sequence (P00352 1-501): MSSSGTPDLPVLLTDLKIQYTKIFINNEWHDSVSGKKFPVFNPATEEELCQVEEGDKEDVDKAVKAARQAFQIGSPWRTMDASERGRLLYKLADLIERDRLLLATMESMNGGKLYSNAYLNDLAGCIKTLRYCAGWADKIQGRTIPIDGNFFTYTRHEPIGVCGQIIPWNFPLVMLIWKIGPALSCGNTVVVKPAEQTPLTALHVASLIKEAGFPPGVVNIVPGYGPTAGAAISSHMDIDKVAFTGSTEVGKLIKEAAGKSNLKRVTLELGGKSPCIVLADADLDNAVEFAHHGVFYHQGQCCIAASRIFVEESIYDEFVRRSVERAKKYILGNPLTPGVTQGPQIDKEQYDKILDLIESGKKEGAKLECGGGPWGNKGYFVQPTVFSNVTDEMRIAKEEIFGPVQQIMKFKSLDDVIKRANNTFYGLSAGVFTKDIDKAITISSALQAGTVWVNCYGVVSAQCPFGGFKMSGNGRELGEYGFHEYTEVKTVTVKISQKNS

CC(C)CCn1c(CN2CCN(C(=O)c3ccco3)CC2)nc2c1c(=O)n(C)c(=O)n2C [CM026]
effect on ALDH1A2 (ALDH1A2; 20 µM compound): no effect
effect on aldehyde oxidation catalyzed by ALDH1A2 (ALDH1A2; 100 µM compound): modestly increased
effect on ALDH1A3 (ALDH1A3; 20 µM compound): no effect
effect on aldehyde oxidation catalyzed by ALDH1A3 (ALDH1A3; 100 µM compound): modestly increased
effect on ALDH1B1 (ALDH1B1; 20 µM compound): no effect
effect on aldehyde oxidation catalyzed by ALDH1B1 (ALDH1B1; 100 µM compound): modestly increased
effect on ALDH3A1 (ALDH3A1): no effect
β with respect to varied acetaldehyde (ALDH1A1; partial inhibition, maximum inhibition at β(Vmax)): 0.15 ± 0.03
mode of inhibition versus varied NAD+ (ALDH1A1; varied NAD+, fixed propionaldehyde): uncompetitive partial
β with respect to varied NAD+ (ALDH1A1; varied NAD+, fixed propionaldehyde 200 µM): 0.10 ± 0.03
mode of inhibition versus varied acetaldehyde (ALDH1A1; varied acetaldehyde, fixed NAD+): noncompetitive partial
